Activity calls are given as the source filed them. No cut-off for these calls is given here.
How the values were obtained:
[1] = test system: Escherichia coli; test: Antibacterial activity against Escherichia coli at 40 ug/disk; format: functional; settings: for zone of inhibition at 40 µg/disc: read-out: IZ
[2] = test system: Candida albicans; test: Antifungal activity against Candida albicans; format: functional, organism-based
[3] = test system: Rhizomucor miehei; test: Antifungal activity against Mucor miehei; format: functional, organism-based
[4] = test system: Staphylococcus aureus; test: Antibacterial activity against Staphylococcus aureus at 40 ug/disk; format: functional; settings: for zone of inhibition at 40 µg/disc: read-out: IZ
[5] = test system: Pseudomonas aeruginosa; test: Antibacterial activity against Pseudomonas aeruginosa at 40 ug/disk; format: functional, organism-based
[6] = test system: Bacillus subtilis; test: Antibacterial activity against Bacillus subtilis; format: functional, organism-based
[7] = test system: Escherichia coli; test: Antibacterial activity against Escherichia coli at 30 ug/disk; format: functional, organism-based
[8] = test system: Staphylococcus aureus; test: Antibacterial activity against Staphylococcus aureus at 30 ug/disk; format: functional; settings: for zone of inhibition at 30 µg/disc: read-out: IZ
[9] = test system: Pseudomonas aeruginosa; test: Antibacterial activity against Pseudomonas aeruginosa at 30 ug/disk; format: functional
[10] = test system: Pseudomonas aeruginosa; test: Antibacterial activity against Pseudomonas aeruginosa at 1 ug/disk; format: functional; settings: read-out: IZ
[11] = test system: Staphylococcus aureus; test: Antibacterial activity against Staphylococcus aureus at 1 ug/disk; format: functional; settings: read-out: IZ
[12] = test system: Escherichia coli; test: Antibacterial activity against Escherichia coli at 1 ug/disk; format: functional; settings: read-out: IZ
[13] = test system: Escherichia coli; test: Antibacterial activity against Escherichia coli at 24 ug/disk; format: functional, organism-based
[14] = test system: Staphylococcus aureus; test: Antibacterial activity against Staphylococcus aureus at 24 ug/disk; format: functional, organism-based
[15] = test system: Pseudomonas aeruginosa; test: Antibacterial activity against Pseudomonas aeruginosa at 24 ug/disk; format: functional, organism-based

| SMILES | Activity [2] | Activity [3] | inhibition zone (IZ) [5] | Activity [6] | inhibition zone (IZ) [7] | inhibition zone (IZ) [9] | also measured |
| --- | --- | --- | --- | --- | --- | --- | --- |
| CCC1=CN2C(=O)c3ccc(OC)c(O)c3N=C[C@@H]2C1 [LIMAZEPINE C] | inactive | inactive | inactive | inactive |  |  | zone of inhibition at 40 µg/disc [1]: 10 mm; zone of inhibition at 40 µg/disc [4]: 18 mm |
| C/C=C1\C[C@H]2C=Nc3c(ccc(OC)c3O)C(=O)N2C1 [LIMAZEPINE E] | inactive | inactive | inactive | inactive |  |  | zone of inhibition at 40 µg/disc [1]: 10 mm; zone of inhibition at 40 µg/disc [4]: 12 mm |
| CCc1cc2cnc3c(O)c(OC)ccc3c(=O)n2c1 [LIMAZEPINE D] | inactive | inactive |  | inactive | inactive |  | zone of inhibition at 30 µg/disc [8]: 7 mm; zone of inhibition at 30 µg/disc ([9]; read-out: IZ): 9 mm |
| CC1(C)S[C@@H]2[C@H](NC(=O)[C@H](N)c3ccccc3)C(=O)N2[C@H]1C(=O)O [AMPICILLIN] | inactive | inactive |  | inactive |  |  | zone of inhibition at 1 µg/disc [10]: 30 mm; zone of inhibition at 1 µg/disc [11]: 13 mm; zone of inhibition at 1 µg/disc [12]: 25 mm |
| COC(=O)c1ccc(OC)c(O)c1N | inactive | inactive |  | inactive | inactive | inactive | zone of inhibition at 30 µg/disc [8]: 11 mm |
| C/C=C1\C[C@H]2[C@@H](O)Nc3ccccc3C(=O)N2C1 | inactive | inactive |  | inactive | inactive | inactive | inhibition zone (IZ) [8]: inactive |
| C/C=C1\C[C@H]2C=Nc3ccccc3C(=O)N2C1 | inactive | inactive |  | inactive | inactive | inactive | inhibition zone (IZ) [8]: inactive |
| CCc1c[nH]c(C=O)c1 | inactive | inactive |  | inactive |  |  | inhibition zone (IZ) [13]: inactive; inhibition zone (IZ) [14]: inactive; inhibition zone (IZ) [15]: inactive |
| CCC1=CN2C(=O)c3ccc(OC)c(O)c3NC(=O)[C@@H]2C1 | inactive | inactive | inactive | inactive |  |  | inhibition zone (IZ) [1]: inactive; inhibition zone (IZ) [4]: inactive |
